Data: patent US20240358818A1, “ANTIBODY-INDUCING POLYPEPTIDE AND VACCINE” (priority 2021, published 2024)

Columns and labels:
[1] = target: T478K mutant RBD epitope antigen (Severe acute respiratory syndrome coronavirus 2, UniProt P0DTC2, T478K)
[2] = target: L452R mutant RBD epitope antigen (Severe acute respiratory syndrome coronavirus 2, UniProt P0DTC2, L452R)

Sequence | reactivity of mouse serum to the mutant RBD [1] | reactivity to the mutant RBD compared with reactivity to the wild-type RBD [1] | reactivity to a homologous epitope of the mutant RBD compared with the wild-type RBD [2]
SNLKPFERDISTEIYQAGSTPC [#11] | sufficiently high reactivity | a little lower | –
GGNYNYLYRLFRKSNLKPFERD [#10] | – | – | substantially equivalent
